Measurements as given in US11612652B2, “Lipids as synthetic vectors to enhance antigen processing and presentation ex-vivo in dendritic cell therapy” (PDS Biotechnology Corporation, priority 2015, dated 2023).
Entries after “also recorded” stand apart in the source; their conditions may differ.

How the values were obtained:
[1] = previous reported studies; cited from earlier work
BMDC / OT-1 CD8+ T cells = assay: OT1 T cell proliferation (3H-thymidine uptake), cross-presentation of OVA by BMDC on MHC class I; format: cell-based, mouse; conditions: for uptake and cross-presentation of OVA by BMDC, OT1 proliferation, CPM of 3H-thymidine uptake: whole OVA and various lipid concentrations, 30 min, three day culture
Method: In the second method, T cells from a TCR transgenic mice (OT-1) were used in which all T cells are specific for an internal peptide of OVA. These T cells will only proliferate if presented with DC which have processed OVA and presented an OVA peptide on MHC class I molecules.
Thus, this represents a stringent assay for cross presentation. BMDC were incubated with different concentrations of the whole OVA protein in the presence or absence of two cationic lipids, either DOTAP or DOTMA for 1 hr at 37° C. The DC were then washed, fixed and added to the OVA peptide specific T cells. […] This response was dose dependent with respect to the OVA concentration, and was even apparent when DC were incubated with OVA at 4° C.
To examine the effect of other cationic lipids and neutral lipids on antigen uptake and cross presentation, BMDC were incubated in the presence of the whole OVA protein and various concentrations of DOTAP DOTMA, DOPC, DOEPC or DDA for 30 min at 37° C. or 4° C. DC were then washed and added to OT1 splenocytes (TCR transgenic T cells specific for the class I restricted OVA peptide […] (SEQ ID NO: 2)) in microtiter plates and cultured for three days at 37° C. […] Control cultures contained OT1 splenocytes and […] (SEQ ID NO: 2) only which bypasses the need for antigen processing.

[2] = tested on: BMDC (CD11c positive cells); assay: DQ-OVA uptake and processing by BMDC, flow cytometry; format: cell-based, mouse; conditions: for enhancement of DQ-OVA uptake and processing compared with known adjuvants (red fluorescence): one hour, 25 μM DOTAP nanoparticles, 10 μg/ml LPS or media alone
Method: In order to determine the effects of cationic lipids on antigen uptake and processing by dendritic cells ex-vivo, a fluorescent ovalbumin protein called DQ-OVA was used. DQ-OVA is non-fluorescent when intact, but emits both red and green fluorescence when the protein is degraded. BMDC were incubated at 37° C. or 4° C. for 1 hr with DQ-OVA alone, or DQ-OVA mixed with different concentrations of the cationic lipid DOTAP. The cells were then washed, fixed, and stained with fluorescent antibodies to CD11c, a marker for dendritic cells. Cells were then analyzed on an LSRII flow cytometer in both red and green fluorescent channels.
This represents the well-known mannose receptor mediated uptake of OVA by DC. […] Graphical representation of the fluorescent uptake of DQ-OVA into BMDC measured by flow cytometry.
This uptake and processing was inhibited at 4° C. confirming that active cytoskeletal rearrangements are required for this type of uptake. […] The effect of R-DOTAP was concentration dependent with 50 uM showing the greatest effect. To determine if the R-DOTAP enhancement of protein uptake is cell dependent, a mouse epithelial cell line was incubated with DQ-OVA under identical conditions as the BMDC. […] Further, they indicate that this enhancement is selective for dendritic cells and not other, non-antigen presenting cell types.
In order to determine whether lipid adjuvants could mediate the same effect as R-DOTAP, BMDC were incubated with DQ-OVA in media alone or with R-DOTAP as described for FIG. 1. In addition, BMDC were incubated under identical conditions with the potent lipid adjuvant lipopolysaccharide (LPS). Mouse bone marrow DC were incubated in the presence of fluorescent DQ-OVA for one hour at either 37° C. or 4° C./azide in the presence of 25 μM DOTAP nanoparticles, 10 μg/ml LPS or media alone, and analyzed by flow cytometry. […] Monophorphoryl lipid-A (MPL) is a lower toxicity derivative of LPS that is now an FDA approved adjuvant in several vaccines.

[3] = tested on: HPV16-specific CD8+ T-cells; assay: IFN-gamma ELISPOT of splenocytes after vaccination with KF18 HPV peptide formulations; format: in vivo, C57 black mice; conditions: vaccinated Day 0 and Day 7, sacrificed Day 14
Method: C57 black mice were vaccinated with various formulations: […]
Group 1: KF18 HPV peptide ([…]) (SEQ ID NO: 4)
Group 2: KF18 HPV peptide+R-DOTAP liposomes
Group 3: KF18 HPV peptide+S-DOTAP liposomes
Group 4: KF18 peptide+MPL/Alum adjuvant
5 mice per group were injected with the various formulations. The mice were vaccinated on Day 0 and Day 7 and sacrificed on Day 14. The splenocytes were removed and ELISPOT studies performed. The splenocytes were stimulated with the peptide […] (RF9) (SEQ ID NO: 5), the HPV16 CD8+ T-cell epitope peptide recognized by the C57 mice. […] An additional example of this effect is observed with the cationic lipid DDA. […] However, it has been reported that in order to induce strong antigen-specific T-cell responses that DDA is used in combination with strong adjuvants (Brandt L. et al, ESAT-6 Subunit Vaccination against Mycobacterium tuberculosis, Infect Immun. 2000 February; 68(2): 791-795).

TC-1 tumors = assay: Established TC-1 tumor model: tumor microenvironment, tumor volume, ELISPOT; format: in vivo, C57 mice
Method: C57 mice were divided into the following groups of 8 mice per group: R-DOTAP+HPV16 E7 peptide KF18 ([…]) (SEQ ID NO: 4) , GM-CSF+HPV16 E7 peptide KF18, R-DOTAP, GM-C SF, HPV16 E7 peptide KF18, untreated. 1×10^5 TC-1 tumor cells were injected into the flank of the mice on day 0. The various formulations were administered on Days 12 and 19 after tumor implantation. On day 19 4-5 mice per group were sacrificed and a number of evaluations performed to evaluate the immunology of the tumor microenvironment.
RF9 specific dextramer staining and flow cytometry were utilized to quantify the number of HPV-specific CD8+ T-cells that had infiltrated into the tumor micro-environment. The study quantified the number of CD8+ T cells specific to the mouse epitope RF9. These CD8+ T cells were measured as a percentage of all immune cells (CD45, CD3 and CD8) present in the tumor. Antigen specific T cells infiltrating into the tumor were measured using RF9 specific dextramers by flow cytometry. […] Data represents mean±SEM of 4-5 mice in each group.
On Day 19 flow cytometry was used to study the immuno-suppressive tumor microenvironment, specifically the regulatory T cell population. T regulatory cells (CD45+CD3+CD4+CD25+Foxp3+) cells infiltrated into tumors on day 14 and day 19.
Of critical importance to the clinical efficacy of any immunotherapy is the ratio of immune suppressive cells to tumor targeting CD8+ T cells within the tumor microenvironment. A lower ratio of immune suppressor cells to CD8+ T cells promotes improved prognosis for anti-tumor benefit. […] Cationic lipids appear to promote the preferential expansion of the right phenotype of effector T-cells in preference to Tregs.
The various formulations were evaluated for their impact on the established TC-1 tumors in the same study. […] Tumor volumes were measured using calipers. The naïve mice group are tumor bearing mice that remained untreated. The HPV16 E7 peptide used in the vaccine is KF18. […]
In this study, IFN-γ ELISPOT studies were also performed to quantify and understand the “quality” of tumor-specific T-cell generated. […]

[4] = tested on: serum cytokines and chemokines; assay: Systemic cytokines in serum after vaccination, Luminex Mouse cytokine 20-plex panel; format: in vivo, Human HLA-A2 mice
Method: This study therefore focused on an evaluation of the systemic presence of cytokines after subcutaneous administration of cationic lipid vaccines. Human HLA-A2 mice that could recognize human HPV antigens were administered high and low doses of R-DOTAP+antigen.
Group 1: • Vaccinate mice with 100 μL of a 1:1 mixture of high dose R-DOTAP (3.4 mg/mL) and sucrose solution.
Group 2: • Vaccinate with 50 μg LPS as a positive control for cytokine induction
Group 3: • Vaccinate mice with 100 μL of high dose R-DOTAP+HPV antigens (1:1 Mixture of RDOTAP 3.4 mg/mL, and HPVMix 0.14 mg/mL)
Group 4: • Vaccinate mice with 100 μL of low dose R-DOTAP+HPV antigens (1:1 Mixture of RDOTAP 0.34 mg/mL, and HPVMix 0.14 mg/mL)
After a single vaccination all mice were bled as follows:
Approximately 200 μL of blood was withdrawn from each mouse at the above specified time points.
The cytokine analysis was performed by Luminex Assay following the manufacturer's instructions.
As a positive control, the mice were also vaccinated with the well-studied toll-like-receptor (TLR) agonist lipopolysaccharide (LPS).
Study Results:Mouse serum was analyzed using a Luminex Mouse cytokine 20-plex panel (cytokines listed below). Cytokine intensity levels were quantitated by comparing to a cytokine standard run in the same plate using Luminex software. […]

CCCCCCCCCCCCCCCCCC[N+](C)(C)CCCCCCCCCCCCCCCCCC [DDA]
in vivo antigen-specific immune responses [1]: neither S-DOTAP nor DDA induced effective in vivo antigen-specific immune responses | observation on dilution with OVA (BMDC / OT-1 CD8+ T cells): formed a precipitate when diluted with OVA | uptake and cross-presentation of OVA by BMDC, OT1 proliferation, CPM of 3H-thymidine uptake (BMDC / OT-1 CD8+ T cells): facilitated enhanced uptake and cross-presentation of OVA by BMDC; also recorded: showed strong enhancement of antigen presentation; also recorded: facilitate antigen uptake and presentation

CCCCCCCC/C=C\CCCCCCCC(=O)OC[C@@H](COP(=O)(OCC)OCC[N+](C)(C)C)OC(=O)CCCCCCC/C=C\CCCCCCCC (stereo partly drawn) [DOEPC, 1,2-dioleoyl-sn-glycero-3-ethylphosphocholine]
uptake and cross-presentation of OVA by BMDC, OT1 proliferation, CPM of 3H-thymidine uptake (BMDC / OT-1 CD8+ T cells): facilitated enhanced uptake and cross-presentation of OVA by BMDC; also recorded: showed strong enhancement of antigen presentation

CCCCCCCC/C=C\CCCCCCCC(=O)OC[C@H](COP(=O)([O-])OCC[N+](C)(C)C)OC(=O)CCCCCCC/C=C\CCCCCCCC [DOPC, reference compound]
uptake and cross-presentation of OVA by BMDC, OT1 proliferation, CPM of 3H-thymidine uptake (BMDC / OT-1 CD8+ T cells): also facilitated uptake and presentation; also recorded: showed some enhancement

CCCCCCCC/C=C\CCCCCCCC(=O)OCC(C[N+](C)(C)C)OC(=O)CCCCCCC/C=C\CCCCCCCC (stereo not drawn) [DOTAP, 1,2-dioleoyl-3-trimethylammonium propane]
DQ-OVA uptake and processing, mean green fluorescence of CD11c positive cells ([2]; 37° C., 1 hr, versus DQ-OVA alone): enhances antigen uptake and processing by DC | cross presentation of OVA to CD8+ T cells, CPM of 3H-thymidine uptake (BMDC / OT-1 CD8+ T cells; BMDC with whole OVA, 1 hr at 37° C., washed, fixed): cross presented antigen to the CD8+ T cells much more strongly than DC incubated with OVA without cationic lipid | uptake and cross-presentation of OVA by BMDC, OT1 proliferation, CPM of 3H-thymidine uptake (BMDC / OT-1 CD8+ T cells): facilitated enhanced uptake and cross-presentation of OVA by BMDC; also recorded: showed some enhancement

CCCCCCCC/C=C\CCCCCCCC(=O)OCC(C[N+](C)(C)C)OC(=O)CCCCCCC/C=C\CCCCCCCC (stereo not drawn) [S-DOTAP, 1,2-dioleoyl-3-trimethylammonium propane]
in vivo antigen-specific immune responses [1]: neither S-DOTAP nor DDA induced effective in vivo antigen-specific immune responses | HPV-specific CD8+ T-cell response (ELISPOT, RF9 stimulation) [3]: did not result in an enhanced CD8+ T-cell response beyond what was seen with the peptide alone | uptake and cross-presentation of OVA by BMDC, OT1 proliferation, CPM of 3H-thymidine uptake (BMDC / OT-1 CD8+ T cells): also facilitated uptake and presentation; also recorded: identical ability to promote antigen uptake, internalization and processing, as well as maturation of dendritic cells

GQAEPDRAHYNIVTF [antigen only]
tumor volume (TC-1 tumors; Day 26, calipers): about 200 mm^3 | effect on established TC-1 tumors (TC-1 tumors; formulations on Days 12 and 19, read Day 26): did not induce any tumor regression but inhibited tumor growth

Monophorphoryl lipid-A [MPL, reference compound]
enhancement of DQ-OVA uptake and processing compared with known adjuvants (red fluorescence) [2]: showed no ability to facilitate protein uptake in BMDC; also recorded: ineffective in promoting antigen uptake compared to both R-DOTAP and S-DOTAP | HPV-specific CD8+ T-cell response (ELISPOT, RF9 stimulation) [3]: significantly lower CD8+ T-cell response compared to R-DOTAP

lipopolysaccharide [LPS]
time to systemic spike in cytokine levels ([4]; after vaccination): ≤ 12 h | systemic induction of cytokines and chemokines in serum ([4]; single vaccination, pre bleed, 12, 24, 48 hours): increases in the systemic levels of IL-12, IP-10, KC, MCP-1 & MIG | enhancement of DQ-OVA uptake and processing compared with known adjuvants (red fluorescence) [2]: no such enhancement was observed
